Measurements: US20180201899A1, “IPSC-EC PERFORMANCE ENHANCEMENT VIA SIRT1 OVEREXPRESSION” (Northwestern University, priority 2015, published 2018)

Tested on: iPSC-ECs
Assay: Senescence associated β-galactosidase staining
Assay type: cell-based
Procedure: Nitric oxide (NO) production was assessed via 4,5-diaminofluorescein.diacetate (DAF 2-DA) assay (Life Technologies). Cell mitogenic effect in response to VEGF (100 ng/ml) was assessed via MTT assay (Sigma-Aldrich) after treating cells in serum-free (starvation) medium, or starvation medium containing 100 ng/ml VEGF for 24 hours. Cell proliferation was determined by counting cell number every seven days after lentiviral transduction using a hemocytometer by excluding dead cells with Trypan blue. […] All results were normalized to cell number via Alamar blue assay (Sigma-Aldrich).Cellular senescence assay kit (Cell Signaling Technology, Danvers, Mass.) was used to stain for senescence associated β-galactosidase (β-gal) in the presence or absence of Ex-527 (10 μM), a SIRT1 inhibitor, and the percentage of β-gal positive cells was quantified with ImageJ. […]
Cellular senescence assay kit (Cell Signaling Technology, Danvers, Mass.) was used to stain for β-galactosidase (β-gal) in the presence or absence of Ex-527 (10 μM), a SIRT1 inhibitor (18), and the percentage of β-gal positive cells was quantified with ImageJ. […] Cell proliferation was determined by counting cell number every seven days after lentiviral transduction using a hemocytometer by excluding dead cells with Trypan blue. […] NO production was assessed via 4,5-diaminofluorescein.diacetate (DAF 2-DA) assay (Life Technologies). […]

## NC(=O)C1CCCc2c1[nH]c1ccc(Cl)cc21 (centres unmarked) [Ex-527]
10 μM Ex-527, LV-empty transduced cells, passage 6
  β-gal+ (senescent) cells: 56.0±6.2%
10 μM Ex-527, all lentiviral groups
  effect on percentage of senescent cells: higher percentage of senescent cells in all groups
